Experimental data as given in PubChem BioAssay AID2060354 (Molecular Pharmacology Branch, DTP, NCI, 2025).
Several values for one entry are separate records, joined by “and”; a condition that tells them apart may be missing. Equal values may be shown once.

System: 519858-162-T-J1-PDC spheroid growth inhibition
Test: Anticancer human tumor 519858-162-T-J1-PDC patient-derived colon adenocarcinoma cell line growth inhibition [TAK]
Conditions: spheroids with HUVEC and MSC; for viability, T/C: stronger effect = lower value
Procedure, shortened: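 Tumor cells were grown as spheroids with HUVEC and hMSC (60:25:15) and treated with targeted agents combined with TAK-243 or ipatasertib. Drugs were tested in half-log steps down from near the clinical Cmax, or from 10 microM where Cmax was unknown.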

[1] = curve of first compound, second compound 0.3 µM
[2] = curve of first compound, second compound 0.949 µM
[3] = curve of first compound, second compound 3 µM
[4] = curve of first compound, second compound 9.49 µM
[5] = curve of first compound, second compound 30 µM
[6] = second compound 0.3 µM, first compound 0.000316 µM
[7] = second compound 0.3 µM, first compound 0.001 µM
[8] = second compound 0.3 µM, first compound 0.00316 µM
[9] = second compound 0.3 µM, first compound 0.01 µM
[10] = second compound 0.3 µM, first compound 0.0316 µM
[11] = second compound 0.3 µM, first compound 0.1 µM
[12] = second compound 0.949 µM, first compound 0.000316 µM
[13] = second compound 0.949 µM, first compound 0.001 µM
[14] = second compound 0.949 µM, first compound 0.00316 µM
[15] = second compound 0.949 µM, first compound 0.01 µM
[16] = second compound 0.949 µM, first compound 0.0316 µM
[17] = second compound 0.949 µM, first compound 0.1 µM
[18] = second compound 3 µM, first compound 0.000316 µM
[19] = second compound 3 µM, first compound 0.001 µM
[20] = second compound 3 µM, first compound 0.00316 µM
[21] = second compound 3 µM, first compound 0.01 µM
[22] = second compound 3 µM, first compound 0.0316 µM
[23] = second compound 3 µM, first compound 0.1 µM
[24] = second compound 9.49 µM, first compound 0.000316 µM
[25] = second compound 9.49 µM, first compound 0.001 µM
[26] = second compound 9.49 µM, first compound 0.00316 µM
[27] = second compound 9.49 µM, first compound 0.01 µM
[28] = second compound 9.49 µM, first compound 0.0316 µM
[29] = second compound 9.49 µM, first compound 0.1 µM
[30] = second compound 30 µM, first compound 0.000316 µM
[31] = second compound 30 µM, first compound 0.001 µM
[32] = second compound 30 µM, first compound 0.00316 µM
[33] = second compound 30 µM, first compound 0.01 µM
[34] = second compound 30 µM, first compound 0.0316 µM
[35] = second compound 30 µM, first compound 0.1 µM
[36] = second compound 0.3 µM, first compound 0.316 µM
[37] = second compound 0.3 µM, first compound 1 µM
[38] = second compound 0.3 µM, first compound 3.16 µM
[39] = second compound 0.3 µM, first compound 10 µM
[40] = second compound 0.949 µM, first compound 0.316 µM
[41] = second compound 0.949 µM, first compound 1 µM
[42] = second compound 0.949 µM, first compound 3.16 µM
[43] = second compound 0.949 µM, first compound 10 µM
[44] = second compound 3 µM, first compound 0.316 µM
[45] = second compound 3 µM, first compound 1 µM
[46] = second compound 3 µM, first compound 3.16 µM
[47] = second compound 3 µM, first compound 10 µM
[48] = second compound 9.49 µM, first compound 0.316 µM
[49] = second compound 9.49 µM, first compound 1 µM
[50] = second compound 9.49 µM, first compound 3.16 µM
[51] = second compound 9.49 µM, first compound 10 µM
[52] = second compound 30 µM, first compound 0.316 µM
[53] = second compound 30 µM, first compound 1 µM
[54] = second compound 30 µM, first compound 3.16 µM
[55] = second compound 30 µM, first compound 10 µM
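Also: spheroids exposed to drugs for 7 days.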

Structure (SMILES): CC(C)n1nc(-c2ccc3oc(N)nc3c2)c2c(N)ncnc21 + CC(C)NCC(C(=O)N1CCN(c2ncnc3c2C(C)CC3O)CC1)c1ccc(Cl)cc1
- IC50 [1]: > 100 nM
- IC50 [2]: > 100 nM
- IC50 [3]: > 100 nM
- IC50 [4]: > 100 nM
- IC50 [5]: > 100 nM
- viability, T/C [6]: 110%
- viability, T/C [7]: 78.7%
- viability, T/C [8]: 89.7%
- viability, T/C [9]: 89.7%
- viability, T/C [10]: 93.8%
- viability, T/C [11]: 68.1%
- viability, T/C [12]: 85.7%
- viability, T/C [13]: 88.2%
- viability, T/C [14]: 107%
- viability, T/C [15]: 83.8%
- viability, T/C [16]: 90%
- viability, T/C [17]: 71.1%
- viability, T/C [18]: 80.5%
- viability, T/C [19]: 102%
- viability, T/C [20]: 89.3%
- viability, T/C [21]: 83.9%
- viability, T/C [22]: 71.4%
- viability, T/C [23]: 72.2%
- viability, T/C [24]: 81.9%
- viability, T/C [25]: 90.1%
- viability, T/C [26]: 84.1%
- viability, T/C [27]: 93.7%
- viability, T/C [28]: 74.1%
- viability, T/C [29]: 73.9%
- viability, T/C [30]: 107%
- viability, T/C [31]: 80.2%
- viability, T/C [32]: 105%
- viability, T/C [33]: 79%
- viability, T/C [34]: 67.1%
- viability, T/C [35]: 72.2%

Structure (SMILES): CC(C)CC(NC(=O)C(Cc1ccccc1)NC(=O)c1cnccn1)B(O)O (configuration not stated) + CC(C)NCC(C(=O)N1CCN(c2ncnc3c2C(C)CC3O)CC1)c1ccc(Cl)cc1
- IC50 [1]: > 10 nM
- IC50 [2]: > 10 nM
- IC50 [3]: > 10 nM
- IC50 [4]: > 10 nM
- IC50 [5]: > 10 nM
- viability, T/C (second compound 0.3 µM, first compound 31.6 pM): 84.6%
- viability, T/C (second compound 0.3 µM, first compound 0.0001 µM): 80.4%
- viability, T/C [6]: 75.7%
- viability, T/C [7]: 92.6%
- viability, T/C [8]: 83.2%
- viability, T/C [9]: 63.8%
- viability, T/C (second compound 0.949 µM, first compound 31.6 pM): 83.7%
- viability, T/C (second compound 0.949 µM, first compound 0.0001 µM): 97.6%
- viability, T/C [12]: 86.4%
- viability, T/C [13]: 88.9%
- viability, T/C [14]: 95.6%
- viability, T/C [15]: 69.7%
- viability, T/C (second compound 3 µM, first compound 31.6 pM): 84.4%
- viability, T/C (second compound 3 µM, first compound 0.0001 µM): 84.7%
- viability, T/C [18]: 67.9%
- viability, T/C [19]: 84.4%
- viability, T/C [20]: 78.7%
- viability, T/C [21]: 77.1%
- viability, T/C (second compound 9.49 µM, first compound 31.6 pM): 100%
- viability, T/C (second compound 9.49 µM, first compound 0.0001 µM): 88.2%
- viability, T/C [24]: 110%
- viability, T/C [25]: 83.2%
- viability, T/C [26]: 66.2%
- viability, T/C [27]: 82.8%
- viability, T/C (second compound 30 µM, first compound 31.6 pM): 85.2%
- viability, T/C (second compound 30 µM, first compound 0.0001 µM): 97.1%
- viability, T/C [30]: 96.7%
- viability, T/C [31]: 88.4%
- viability, T/C [32]: 85.2%
- viability, T/C [33]: 78%

Structure (SMILES): CC(C)(C)c1nc(-c2cccc(NS(=O)(=O)c3c(F)cccc3F)c2F)c(-c2ccnc(N)n2)s1 + CC(C)NCC(C(=O)N1CCN(c2ncnc3c2C(C)CC3O)CC1)c1ccc(Cl)cc1
- IC50 [1]: > 10000 nM
- IC50 [2]: > 10000 nM
- IC50 [3]: > 10000 nM
- IC50 [4]: > 10000 nM
- IC50 [5]: > 10000 nM
- viability, T/C [10]: 112%
- viability, T/C [11]: 128%
- viability, T/C [36]: 115%
- viability, T/C [37]: 130%
- viability, T/C [38]: 107%
- viability, T/C [39]: 77.9%
- viability, T/C [16]: 109%
- viability, T/C [17]: 115%
- viability, T/C [40]: 130%
- viability, T/C [41]: 113%
- viability, T/C [42]: 100%
- viability, T/C [43]: 86.7%
- viability, T/C [22]: 102%
- viability, T/C [23]: 102%
- viability, T/C [44]: 116%
- viability, T/C [45]: 97.3%
- viability, T/C [46]: 106%
- viability, T/C [47]: 61.2%
- viability, T/C [28]: 104%
- viability, T/C [29]: 92.6%
- viability, T/C [48]: 112%
- viability, T/C [49]: 91.6%
- viability, T/C [50]: 84.4%
- viability, T/C [51]: 72.6%
- viability, T/C [34]: 105%
- viability, T/C [35]: 86.9%
- viability, T/C [52]: 98.1%
- viability, T/C [53]: 82.2%
- viability, T/C [54]: 83.2%
- viability, T/C [55]: 75.4%

Structure (SMILES): CC(C)CC(NC(=O)C(Cc1ccccc1)NC(=O)c1cnccn1)B(O)O (configuration not stated)
- viability, T/C (compound 31.6 pM): 90.9% and 107%
- viability, T/C (compound 0.0001 µM): 97.5% and 90.8%
- viability, T/C (compound 0.000316 µM): 91% and 116%
- viability, T/C (compound 0.001 µM): 88.1% and 106%
- viability, T/C (compound 0.00316 µM): 89.5% and 109%
- viability, T/C (compound 0.01 µM): 73.2% and 71.1%
- IC50 (curve of compound): > 10 nM

Structure (SMILES): Cc1nc(NC(=O)N2CCCC2C(N)=O)sc1-c1ccnc(C(C)(C)C(F)(F)F)c1 (configuration not stated) + CC(C)NCC(C(=O)N1CCN(c2ncnc3c2C(C)CC3O)CC1)c1ccc(Cl)cc1
- IC50 [1]: > 10000 nM
- IC50 [2]: > 10000 nM
- IC50 [3]: > 10000 nM
- IC50 [4]: > 10000 nM
- IC50 [5]: > 10000 nM
- viability, T/C [10]: 110%
- viability, T/C [11]: 88.2%
- viability, T/C [36]: 81%
- viability, T/C [37]: 81.7%
- viability, T/C [38]: 68.5%
- viability, T/C [39]: 52.8%
- viability, T/C [16]: 85.3%
- viability, T/C [17]: 94.8%
- viability, T/C [40]: 104%
- viability, T/C [41]: 79.9%
- viability, T/C [42]: 86.9%
- viability, T/C [43]: 66.2%
- viability, T/C [22]: 80%
- viability, T/C [23]: 77.5%
- viability, T/C [44]: 76.9%
- viability, T/C [45]: 75.1%
- viability, T/C [46]: 80.5%
- viability, T/C [47]: 65.7%
- viability, T/C [28]: 85.6%
- viability, T/C [29]: 74.2%
- viability, T/C [48]: 81.4%
- viability, T/C [49]: 74.4%
- viability, T/C [50]: 71.2%
- viability, T/C [51]: 62.7%
- viability, T/C [34]: 94.6%
- viability, T/C [35]: 82%
- viability, T/C [52]: 91.5%
- viability, T/C [53]: 80.2%
- viability, T/C [54]: 72.4%
- viability, T/C [55]: 72.2%
